These results are taken from PubChem BioAssay (NCI).

Some test systems named below: A549 NSCLC; BT-549 breast; COLO 205 colon; DU-145 prostate; HL-60(TB) leukemia; HT29 colon; MDA-MB-231 breast; NCI/ADR-RES ovarian; SF-268 CNS; SR leukemia.
Holding throughout (experiment): NCI anticancer screen, dose series, 48 h

Structures are written as SMILES.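 48-hour exposure; five concentrations; linearly interpolated endpoints. GI50: concentration for 50% inhibition of growth. TGI denotes the concentration required for complete inhibition of growth.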 A value given as a limit tells only on which side of the number the result lay.

`O=C1/C(=C/c2ccccc2[N+](=O)[O-])Cc2ccccc21`: the GI50 was 2500 nM with A549 NSCLC; 1830 nM with BT-549 breast; 1300 nM with COLO 205 colon; 1860 nM in the assay with DU-145 prostate; 2850 nM in the assay with HL-60(TB) leukemia; 931 nM with HT29 colon. Moreover, the GI50 is 1700 nM with MDA-MB-231 breast, 3350 nM in the assay on NCI/ADR-RES ovarian, 3100 nM with SF-268 CNS and 495 nM with SR leukemia. Besides, the TGI in the assay on A549 NSCLC stood at 11000 nM; in the assay with BT-549 breast, 4490 nM; with COLO 205 colon, 2570 nM; with DU-145 prostate it was 3510 nM; in the assay with HL-60(TB) leukemia it was 7120 nM; in the assay on HT29 colon, 3150 nM. Moreover, the TGI in the assay on MDA-MB-231 breast was 6200 nM; in the assay on NCI/ADR-RES ovarian, 40600 nM; with SF-268 CNS, 29600 nM; in the assay with SR leukemia it was over 100000 nM.

On to `CCOc1ccccc1C(=O)N1CCN(c2cc(Cl)cc(Cl)c2)CC1`, for which the GI50 in the assay with A549 NSCLC is 42.9 nM; in the assay with BT-549 breast, 42.9 nM; with COLO 205 colon it was 28.7 nM; with DU-145 prostate it was 46.8 nM; in the assay with HL-60(TB) leukemia, 25.4 nM; with HT29 colon, 31.6 nM. The GI50 with MDA-MB-231 breast was 44.4 nM; in the assay on NCI/ADR-RES ovarian, 23.1 nM; with SF-268 CNS, 112 nM; in the assay with SR leukemia it was 33.5 nM. Moreover, the TGI was 15800 nM in the assay on A549 NSCLC; 4340 nM with BT-549 breast; 85.3 nM with COLO 205 colon; 14000 nM in the assay with DU-145 prostate; 78 nM with HL-60(TB) leukemia; 2290 nM with HT29 colon. For the same compound, the TGI came out at 12300 nM in the assay on MDA-MB-231 breast, 5640 nM in the assay on NCI/ADR-RES ovarian, 18700 nM in the assay with SF-268 CNS and 22000 nM in the assay with SR leukemia.
